Experimental data: US8673548B2, “Genes and polypeptides relating to breast cancers” (Oncotherapy Science, Inc., priority 2006, dated 2014)

Columns and labels:
Assay type in all cases: cell-based, human
PBK/TOPK [1] = test: western blot of PBK/TOPK phosphorylation after okadaic acid; settings: T47D
Protocol: Wild-type and kinase-dead PBK/TOPK proteins were exogenously expressed by transfection into T47D cell using pCAGGS-nHA expression vector. Whole cell lysates were harvested 48 h after the transfection. The cells were lysed in the cell lysis buffer as described above. The following procedures are the same as described above except that anti-HA rat high-affinity antibody (Roche) was used for the antibody reaction. […] The following procedures were also carried out as described above. Phosphorylated protein was confirmed by treatment with 1 U of lambda protein phosphatase (New England Biolabs, Ipswich, Mass.) at 30° C. for 2 h.

F3374 protein = test: western blot of F3374 protein after siAURKB; settings: T47D cells; vs siEGFP
Protocol: To detect the endogenous F3374 and AURKB proteins in breast cancer cell lines (HBC4, BT-549, HBC5, HBL100, HCC1937, MCF-7, MDA-MB-231, MDA-MB-453, SKBR3, and T47D, and ZR75-1) and human mammary gland epithelial cell (HMEC), cells were lysed in lysis buffer (50 mM Tris-HCl, pH 8.0/150 mM NaCl/0.5% NP-40) including 0.1% protease inhibitor cocktail III (Calbiochem, San Diego, Calif.). The amount of total protein was estimated by protein assay kit (Bio-Rad, Hercules, Calif.), and then proteins were mixed with SDS-sample buffer and boiled before loading at 10% SDS-PAGE gel. After electrophoresis, the proteins were blotted onto nitrocellulose membrane (GE Healthcare). After blocking with blocking solution (4% BlockAce; Dainippon Pharmaceutical. Co., Ltd, Osaka, Japan), membranes blotting proteins were incubated with anti-F3374 polyclonal antibody at 1:100 dilutions or anti-AURKB rabbit polyclonal antibody (abcam, Cambridge, UK) at 1:100 dilutions for detection of endogenous F3374 or AURKB protein. Finally the membrane was incubated with HRP conjugated-secondary antibody and protein-bands were visualized by ECL detection reagents (GE Healthcare). Beta-actin was examined to serve as a loading control. […]

CDK1 = test: immunoblotting of G2/M-arrested cells incubated with CDK1 inhibitor; settings: T47D
Protocol: To detect expression of PBK/TOPK (WT, T9A, KD, T9A/KD), p47, p97 or PP1α proteins, immunoblottings were performed according to previous report (Park et al., 2006). Briefly, cells were lysed in lysis buffer (50 mM Tris-HCl, pH 8.0/150 mM NaCl/0.5% NP-40) followed by homogenization and incubation on ice for 30 minutes, only soluble fractions were separated from cell debris by centrifugation. After SDS-PAGE (sodium dodecyl sulfate polyacrylamide gel electrophoresis), the proteins were blotted onto nitrocellulose membrane (GE Healthcare, Buckinghamshire, United Kingdom), incubated with the corresponding antibodies, and visualized using an ECL detection kit (GE Healthcare). To collect the mitotic cells, the present inventors employed a “mitotic shake-off” method as described previously (Dechat T et al., EMBO J. 17: 4887-902 (1998)). A protein-protein interaction was examined by immunoprecipitation after co-transfection with above described constructs of interest to COS-7 cells using the FuGene6 reagent (Roche) as described previously (Shimo A et al., Cancer Sci 98: 174-81 (2007)) except using an anti-6×His antibody (Santa Cruz Biotechnology) to precipitated p97/VCP-myc-6×His protein. After washing 5 times with lysis buffer, immunocomplexes were loaded on a SDS-PAGE gel and immunoblotted as described above.
An active recombinant PBK/TOPK protein was purchased from Invitrogen (Carlsbad, Calif.), and recombinant proteins of Histone H3 and Protein Phosohatase 1-alpha (PP1α were from Upstate Biotechnology (Lake Placidy, N.Y.). Cyclin-dependent kinase-1 (CDK1 kinase) (cdc2/cyclin B1) and lambda protein phosphatase (λPPase) were from New England Biolabs (Ipswich, Mass.). The glutathione S-transferase (GST)-tagged PBK/TOPK (GST-PBK/TOPK) protein was expressed in Escherichia coli and purified with Glutathione Sepharose 4B beads (GE Heath care, Buckinghamshire, United Kingdom) according to the previous report (Lin et al., 2007). […]

BT-549 and BT-474 cells = test: colony-formation and MTT assays, A7322 siRNA
Protocol: (§1) Human breast cancer cells-lines, BT-549 and BT-474 (for A7322) and T47D and HBC4 (for F3374), were plated onto 10-cm dishes (2×10^6 cells/dish) and transfected with 8 μg each of psiU6BX3.0-Mock (without insertion), psiU6BX3.0-A7322 (#2, #3 and a mismatch construct (m#3) including three-base substitutions in #3), psiU6BX3.0-F3374V1 (#1, and #4), psiU6BX3.0-EGFP, psiU6BX3.0-SCR using FuGENE6 reagent (Roche) as described above. Inventors selected the psiU6BX3.0-introduced BT-549, BT-474, T47D and HBC4, with medium containing 0.2 mg/ml or 1 mg/ml of neomycin (Geneticin, Gibco BRL, Carlsbad, Calif.), respectively. […] To evaluate an effect of siRNAs, total RNAs were extracted from the cells at 4-day incubation with neomycin, and then the knockdown effect of siRNAs was examined by a semi-quantitative RT-PCR using specific primer sets;
Transfectants expressing siRNA were grown for 4 weeks in selective media containing neomycin, then fixed with 4% paraformaldehyde for 15 min before staining with Giemsa's solution (Merck, Whitehouse Station, N.J.) to assess colony number. To quantify cell viability, MTT assays were performed with cell counting kit-8 4 days after transfection according to manufacturer's recommendation (Wako, Osaka, Japan). Absorbance at 570 nm wavelength was measured with a Microplate Reader 550 (Bio-Rad). […]

A7322 = test: semi-quantitative RT-PCR of A7322 after siRNA vector transfection; settings: BT-549 and BT-474 cells; compared with psiU6BX-Mock
Protocol: Inventors established a vector-based RNAi (RNA interference) expression system using psiU6BX3.0 siRNA expression vector as described previously (Taniuchi K et al. Cancer Res., 65:105-112. 2005.). siRNA expression vectors against A7322 (psiU6BX3.0-A7322), F3374V1 (psiU6BX3.0-F3374V1), EGFP (psiU6BX3.0-EGFP), Scramble (psiU6BX3.0-SCR) and Mock (psiU6BX3.0-Mock) were prepared by cloning of double-stranded oligonucleotides into the BbsI site of the psiU6BX3.0 vector. The target sequences of synthetic oligonucleotides for siRNA were as follows;
as §1

HBC4 cells = test: microscopy of morphological changes after siF3374; settings: vs siEGFP
Description: (§2) Furthermore, the present inventors used siRNA oligonucleotides (Sigma Aldrich Japan KK, Tokyo, Japan) due to its high transfection efficiency to further verify the knockdown effects of F3374 and AURKB on cell morphology. The sequences targeting each gene were as follows:
(§3) T47D or HBC4 cells (2.5×10^5 cells in 10 cm dish for FACS analysis) cells were transfected with those siRNAs using Lipofectamin RNAiMAX (Invitrogen) in Optimem (Invitrogen) medium according to the instructions of manufacture. Forty-eight hours after transfection, morphological changes of the HBC4 cells were examined by microscopy and by immunocytochemical staining analysis using Alexa Fluor 594 Phalloidin (Molecular Probe).

F3374 = test: western blot of F3374 after siF3374 oligonucleotide; settings: HBC4 cells
Description: as §2, §3

T47D cells = test: FACS cell cycle analysis after nocodazole
Protocol: For PBK/TOPK, the cell cycle of cultured T47D breast cancer cells were synchronized via the treatment with aphidicolin (Sigma-Aldrich) for 16 h, washing 5 times with PBS (−), and addition of fresh culture media to release from cell-cycle arrest. For 15 h (every 3 h) after releasing, cells were collected and fixed with 70% ethanol, and then kept at 4° C. before use. Cells were incubated with 10 mg/mL RNaseI in PBS (−) at 37° C. for 30 min and stained with 50 μg of propidium iodide at room temperature for 30 min. Cell suspensions at each time point were analyzed with FACscan (Becton Dickinson, Franklin Lakes, N.J.).
To collect the G2/M arrested cells, 0.3 μg/mL of nocodazole (Sigma-Aldrich) was treated to culture media for the last 16 hours before collection.

PBK/TOPK [2] = test: western blot of PBK/TOPK after nocodazole; settings: T47D; 6 to 18 h

C=C1[C@@H](O)[C@@H]2O[C@]3(CC[C@H](/C=C/[C@@H](C)[C@@H]4CC(C)=C[C@@]5(O[C@H](C[C@@](C)(O)C(=O)O)CC[C@H]5O)O4)O3)CC[C@H]2O[C@@H]1[C@@H](O)C[C@H](C)[C@H]1O[C@@]2(CCCCO2)CC[C@H]1C [OA, okadaic acid]
phosphorylation of PBK/TOPK (PBK/TOPK [1]; 100 nM for 9 hours): induced
phosphorylation of PBK/TOPK (PBK/TOPK [1]; low concentration (less than 100 nM)): not

siAURKB: siRNA oligonucleotide 5′-AAGGUGAUGGAGAAUAGCAGU-3′ (SEQ ID NO: 66) targeting AURKB (listed as RNA, chemistry not given here)
phosphorylated F3374 protein (F3374 protein): significant decrease
total F3374 protein (F3374 protein): significant decrease

CCn1cnc2c(Nc3cccc(Cl)c3)nc(N[C@@H]3CCCC[C@@H]3N)nc21 [CDK1 inhibitor, CGP74514A]
phosphorylation level of the Rb protein at Ser807 and 811 (CDK1; 0 to 4 hours): decreased phosphorylation level
phosphorylation of PP1α at Thr320 (CDK1; 0 to 4 hours): reduced phosphorylation
phosphorylation of PBK/TOPK induced by G2/M arrest (CDK1; 0 to 4 hours after nocodazole 16 hours): diminished in time-dependent manner

m#3: mismatch siRNA with 3-bp replacement in A7322 si-#3, 5′-AATATTCGATCTCTGCCACAC-3′ (SEQ ID NO: 36) (listed as DNA, chemistry not given here)
growth of BT-549 and BT-474 cells (BT-549 and BT-474 cells): no suppressive effect
expression level of A7322 (A7322): no suppressive effect

siF3374: siRNA oligonucleotide 5′-ACUCCUACGUUCUCUAUUA-3′ (SEQ ID NO: 65) targeting F3374 (listed as RNA, chemistry not given here)
morphological alterations: cell size (HBC4 cells): enlargement of the size of the cells
morphological alterations: cytokinesis (HBC4 cells): appearance of the intercellular bridges between two separating-cells
knockdown effect at the protein level (F3374) (F3374): significant knockdown effect

COC(=O)Nc1nc2ccc(C(=O)c3cccs3)cc2[nH]1 [nocodazole]
proportion of cells at the G2/M phase (T47D cells; 6 to 18 h): elevated
cells synchronized at G2/M phase (T47D cells; treatment for 16 hours): 61-70%
intensity of high-molecular (phosphorylated) band of endogenous PBK/TOPK (PBK/TOPK [2]): elevated in a time-dependent manner
